US20110040088A1, “FUSED HETEROCYCLIC COMPOUNDS” (priority 2003, published 2011)
Structures can show the parent of a compound that is named as a salt. Where two headings read alike, the source gives them in different places. Each block holds one compound with its values, some of them ahead of it.

Legend:
[1] = molecular target: T1, rat 5-HT7a receptor (Rattus norvegicus, UniProt P32305); experiment: 5-HT7 receptor radioligand binding ([3H]5-CT, membranes of transfected HEK-293 cells); details: rat 5-HT7a in HEK-293 membranes, 1 nM [3H]5-CT
T1 construct: expressed in transfected cells

[2] = molecular target: 5-HT2A receptor (UniProt P28223); experiment: 5-HT2A receptor radioligand binding ([3H]ketanserin);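 further: competitive displacement binding on membranes, either from rat cerebral cortex or from NIH3T3 cells stably expressing human 5-HT2A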
Method: The affinity of the compounds for the rat 5-HT2A receptor was evaluated by competitive radioligand binding assay using [^3H]ketanserine as the radioligand. The assay was performed on membranes from rat cortex as previously described (Schotte, A. et al., Psychopharmacology (1996) 124: 57-73). Briefly, brain tissue (rat cortex) was homogenized in 20 volumes per wet weight tissue of Tris-HCl buffer (50 mM, pH 7.4). The total membrane fraction was collected by centrifugation and washed by subsequent centrifugation runs (25 min at 25,000 g at 4° C.). Membranes were re-suspended in Tris-HCl buffer (50 mM, pH 7.4) containing 1 nM [^3H]ketanserin. Non-specific binding was estimated in the presence of 10 μM risperidone.

[3] = molecular target: human recombinant 5-HT2B receptor (Homo sapiens, UniProt P41595); experiment: 5-HT2B receptor radioligand binding ([3H]mesulergine, CHO membranes);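 further: competitive displacement binding on membranes of CHO cells stably expressing the receptor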
Method: (§1) Affinity for 5HT2 Receptor Binding Sites
(§2) Receptor binding was performed using the human recombinant 5-HT2A (GB: X57830), 5-HT2B (GB: Z36748) and 5-HT2c (GB: M81778) receptors. The affinity of the compounds for the 3 different human 5-HT2 receptor subtypes was evaluated by competitive radioligand binding assays using [^3H]ketanserin (h5-HT2A) or [^3H]mesulergine (h5-HT2B and h5-HT2c). The assays were performed on membranes prepared from NIH3T3 stably transfected with h5-HT2A or CHO stably transfected with h5-HT2B and h5-HT2C.

[4] = molecular target: T2, human recombinant 5-HT2C receptor (Homo sapiens, UniProt P28335); experiment: 5-HT2C receptor radioligand binding ([3H]mesulergine, CHO membranes);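 further: competitive displacement of the tritiated ligand, using membranes from CHO cells stably transfected with the human receptor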
T2 sequence (P28335 33-458): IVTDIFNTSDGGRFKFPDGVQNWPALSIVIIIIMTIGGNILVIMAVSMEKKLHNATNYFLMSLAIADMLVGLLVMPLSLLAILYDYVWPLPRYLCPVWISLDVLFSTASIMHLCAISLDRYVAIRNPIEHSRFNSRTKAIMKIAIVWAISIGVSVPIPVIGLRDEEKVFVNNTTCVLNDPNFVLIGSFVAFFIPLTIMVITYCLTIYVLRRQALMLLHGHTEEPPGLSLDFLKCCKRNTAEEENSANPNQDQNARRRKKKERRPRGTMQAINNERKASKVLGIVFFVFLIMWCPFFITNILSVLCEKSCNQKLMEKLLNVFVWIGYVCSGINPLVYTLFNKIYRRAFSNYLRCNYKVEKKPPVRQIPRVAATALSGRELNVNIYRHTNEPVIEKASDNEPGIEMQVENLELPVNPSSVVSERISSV
Method: as §1, §2

[5] = read-out: Ki 5-HT2A, table does not say whether rat cortex or human recombinant (NIH3T3) receptor
[6] = read-out: Ki 5-HT2C, h5-HT2C in CHO membranes, [3H]mesulergine

Sequence of human recombinant 5-HT2B receptor (P41595 whole entry): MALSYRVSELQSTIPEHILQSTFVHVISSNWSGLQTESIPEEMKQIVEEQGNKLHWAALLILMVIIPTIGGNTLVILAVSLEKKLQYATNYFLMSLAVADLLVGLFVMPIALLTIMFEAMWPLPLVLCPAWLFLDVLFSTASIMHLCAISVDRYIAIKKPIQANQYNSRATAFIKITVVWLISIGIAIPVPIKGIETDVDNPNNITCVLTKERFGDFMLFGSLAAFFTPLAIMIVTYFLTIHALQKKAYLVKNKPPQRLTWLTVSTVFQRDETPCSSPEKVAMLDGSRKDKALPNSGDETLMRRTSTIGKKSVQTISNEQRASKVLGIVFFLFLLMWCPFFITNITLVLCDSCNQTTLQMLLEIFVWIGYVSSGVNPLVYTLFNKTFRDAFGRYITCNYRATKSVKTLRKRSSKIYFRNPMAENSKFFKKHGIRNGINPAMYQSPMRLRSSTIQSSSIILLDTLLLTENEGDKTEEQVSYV
T1 sequence (P32305 whole entry): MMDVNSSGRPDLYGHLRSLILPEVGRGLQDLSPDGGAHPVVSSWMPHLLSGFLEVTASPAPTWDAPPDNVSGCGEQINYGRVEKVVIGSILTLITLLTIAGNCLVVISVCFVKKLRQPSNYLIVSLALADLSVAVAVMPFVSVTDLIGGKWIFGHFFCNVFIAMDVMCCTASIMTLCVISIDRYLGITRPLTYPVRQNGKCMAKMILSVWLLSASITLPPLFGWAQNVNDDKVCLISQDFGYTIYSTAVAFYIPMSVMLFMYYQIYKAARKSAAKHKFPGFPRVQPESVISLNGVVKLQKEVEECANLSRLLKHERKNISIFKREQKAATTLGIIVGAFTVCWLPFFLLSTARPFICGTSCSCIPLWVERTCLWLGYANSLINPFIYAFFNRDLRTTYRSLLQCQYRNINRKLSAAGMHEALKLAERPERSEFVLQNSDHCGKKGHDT

Structure (SMILES): CCn1nc2c(c1-c1ccc(Cl)cc1)CCNCC2 [Example 64, 3-(4-Chloro-phenyl)-2-ethyl-2,4,5,6,7,8-hexahydro-1,2,6-triaza-azulene]
- Ki [1]: 0.019 µM
- Ki [2, 5]: 0.018 µM

Structure (SMILES): CCCN1CCc2c(-c3ccccc3)nn(Cc3ccccc3)c2CC1 [Example 57, 1-Benzyl-3-phenyl-6-propyl-1,4,5,6,7,8-hexahydro-1,2,6-triaza-azulene]
- Ki [1]: 0.015 µM

Structure (SMILES): COc1ccc(CN2CCc3[nH]nc(-c4ccc(Cl)cc4)c3CC2)cc1OC [Example 167, 3-(4-Chloro-phenyl)-6-(3,4-dimethoxy-benzyl)-1,4,5,6,7,8-hexahydro-1,2,6-triaza-azulene]
- Ki [1]: 0.075 µM
- Ki [3]: 0.35 µM
- Ki [4]: 10 µM

Structure (SMILES): CCC(CC)Cn1nc(-c2ccc(Cl)cc2)c2c1CCNCC2 [Example 114, 3-(4-Chloro-phenyl)-1-(2-ethyl-butyl)-1,4,5,6,7,8-hexahydro-1,2,6-triaza-azulene]
- Ki [1]: 0.032 µM
- Ki [3]: 0.09 µM
- Ki [4]: 0.4 µM

Structure (SMILES): Cc1c(-c2ccccc2)c2c(n1Cc1ccccc1)CCNC2 [Example 17, 1-Benzyl-2-methyl-3-phenyl-4,5,6,7-tetrahydro-1H-pyrrolo[3,2-c]pyridine]
- Ki [1]: 0.07 µM

Structure (SMILES): O=[N+]([O-])c1ccc(Cn2nc(-c3ccc(Cl)cc3)c3c2CCNCC3)cc1 [Example 98, 3-(4-Chloro-phenyl)-1-(4-nitro-benzyl)-1,4,5,6,7,8-hexahydro-1,2,6-triaza-azulene]
- Ki [1]: 0.04 µM

Structure (SMILES): CC(C)n1nc2c(c1-c1ccc([N+](=O)[O-])cc1)CCNCC2 [Example 253, 2-Isopropyl-3-(4-nitro-phenyl)-2,4,5,6,7,8-hexahydro-1,2,6-triaza-azulene]
- Ki [1]: 0.075 µM
- Ki [3]: 0.025 µM
- Ki [4]: 0.625 µM

Structure (SMILES): Cc1ccc(-c2cn(Cc3ccccc3)c3c2CNCC3)cc1 [Example 18, 1-Benzyl-3-p-tolyl-4,5,6,7-tetrahydro-1H-pyrrolo[3,2-c]pyridine]
- Ki [1]: 0.025 µM

Structure (SMILES): OCCCCCn1nc(-c2ccc(Cl)cc2)c2c1CCNCC2 [Example 87, 5-[3-(4-Chloro-phenyl)-5,6,7,8-tetrahydro-4H-1,2,6-triaza-azulen-1-yl]-pentan-1-ol]
- Ki [1]: 0.033 µM

Structure (SMILES): CCCCn1cc(-c2ccc(C)cc2)c2c1CCNC2 [Example 22, 1-Butyl-3-p-tolyl-4,5,6,7-tetrahydro-1H-pyrrolo[3,2-c]pyridine]
- Ki [1]: 0.045 µM

Structure (SMILES): CCc1ccc(-c2c3c(nn2CC)CCNCC3)cc1 [Example 257, 2-Ethyl-3-(4-ethyl-phenyl)-2,4,5,6,7,8-hexahydro-1,2,6-triaza-azulene]
- Ki [1]: 0.009 µM
- Ki [3]: 0.002 µM
- Ki [4]: 0.11 µM

Structure (SMILES): c1ccc(Cn2cc(-c3ccccc3)c3c2CCNCC3)cc1 [Example 26, 1-Benzyl-3-phenyl-1,4,5,6,7,8-hexahydro-pyrrolo[2,3-d]azepine]
- Ki [1]: 0.018 µM

Structure (SMILES): CCn1nc2c(c1-c1ccc(C)cc1)CCNCC2 [Example 214, 2-Ethyl-3-p-tolyl-2,4,5,6,7,8-hexahydro-1,2,6-triaza-azulene]
- Ki [1]: 0.005 µM
- Ki [3]: 0.002 µM
- Ki [4]: 0.17 µM

Structure (SMILES): O=[N+]([O-])c1ccc(-c2cn(Cc3ccccc3)c3c2CNCC3)cc1 [Example 1, 1-Benzyl-3-(4-nitro-phenyl)-4,5,6,7-tetrahydro-1H-pyrrolo[3,2-c]pyridine]
- Ki [1]: 0.12 µM

Structure (SMILES): Fc1ccc(Cn2nc(-c3ccc(Cl)cc3)c3c2CCNCC3)c(F)c1 [Example 108, 3-(4-Chloro-phenyl)-1-(2,4-difluoro-benzyl)-1,4,5,6,7,8-hexahydro-1,2,6-triaza-azulene]
- Ki [1]: 0.009 µM
- Ki [3]: 0.1 µM
- Ki [4]: 0.8 µM

Now from value to compound:

- Ki [1]: 0.021 µM
- Ki [2, 5]: 0.008 µM
- Ki [3]: 0.0013 µM
- Ki [4, 6]: 0.045 µM
Structure (SMILES): COc1ccc(-c2c3c(nn2C(C)C)CCNCC3)cc1 [Example 242, 2-Isopropyl-3-(4-methoxy-phenyl)-2,4,5,6,7,8-hexahydro-1,2,6-triaza-azulene]

- Ki [1]: 0.012 µM
- Ki [2, 5]: 0.0075 µM
- Ki [3]: 0.0047 µM
- Ki [4, 6]: 0.08 µM
Structure (SMILES): CC(C)n1nc2c(c1-c1ccc(C(F)(F)F)cc1)CCNCC2 [Example 213, 2-Isopropyl-3-(4-trifluoromethyl-phenyl)-2,4,5,6,7,8-hexahydro-1,2,6-triaza-azulene]

- Ki [1]: 0.04 µM
Structure (SMILES): Cc1ccccc1Cn1nc(-c2ccc(Cl)cc2)c2c1CCNCCC2 [Example 174, 3-(4-Chloro-phenyl)-1-(2-methyl-benzyl)-4,5,6,7,8,9-hexahydro-1H-1,2,7-triaza-cyclopentacyclooctene]

- Ki [1]: 0.02 µM
Structure (SMILES): Clc1ccc(-c2nn(CC3CCCCC3)c3c2CCNCC3)cc1 [Example 117, 3-(4-Chloro-phenyl)-1-cyclohexylmethyl-1,4,5,6,7,8-hexahydro-1,2,6-triaza-azulene]

- Ki [1]: 0.06 µM
Structure (SMILES): Clc1ccc(-c2nn(C3CCCCCCC3)c3c2CCNCC3)cc1 [Example 255, 3-(4-Chloro-phenyl)-1-cyclooctyl-1,4,5,6,7,8-hexahydro-1,2,6-triaza-azulene]

- Ki [1]: 0.008 µM
- Ki [2, 5]: 0.02 µM
Structure (SMILES): CC(C)Cn1nc(-c2ccc(Cl)cc2)c2c1CCNCC2 [Example 118, 3-(4-Chloro-phenyl)-1-isobutyl-1,4,5,6,7,8-hexahydro-1,2,6-triaza-azulene]

- Ki [1]: 0.039 µM
Structure (SMILES): Clc1ccc(-c2nn(Cc3ccc4c(c3)OCO4)c3c2CCNCC3)cc1 [Example 119, 1-Benzo[1,3]dioxo1-5-ylmethyl-3-(4-chloro-phenyl)-1,4,5,6,7,8-hexahydro-1,2,6-triaza-azulene]

- Ki [1]: 0.03 µM
Structure (SMILES): CCC(CC)n1nc2c(c1-c1cccs1)CCNCC2 [Example 191, 2-(1-Ethyl-propyl)-3-thiophen-2-yl-2,4,5,6,7,8-hexahydro-1,2,6-triaza-azulene]

- Ki [1]: 0.037 µM
Structure (SMILES): Clc1ccc(-c2nn(-c3ccccc3)c3c2CCNCC3)cc1 [Example 172, 3-(4-Chloro-phenyl)-1-phenyl-1,4,5,6,7,8-hexahydro-1,2,6-triaza-azulene]

- Ki [1]: 0.005 µM
- Ki ([2]; read-out: Ki 5-HT2A, table does not say whether rat cortex or human recombinant (NIH3T3) receptor, citrate salt): 0.4 µM
Structure (SMILES): Clc1ccc(-c2nn(Cc3ccccc3)c3c2CCNCC3)cc1 [Example 273, 1-Benzyl-3-(4-chloro-phenyl)-1,4,5,6,7,8-hexahydro-1,2,6-triaza-azulene citrate salt]

- Ki [1]: 0.04 µM
Structure (SMILES): Clc1ccc(-c2nn(CC3CCOCC3)c3c2CCNCC3)cc1 [Example 120, 3-(4-Chloro-phenyl)-1-(tetrahydro-pyran-4-ylmethyl)-1,4,5,6,7,8-hexahydro-1,2,6-triaza-azulene]

- Ki [1]: 0.03 µM
- Ki [2, 5]: 0.008 µM
- Ki [3]: 0.095 µM
Structure (SMILES): CC(C)(C)n1nc2c(c1-c1ccccc1)CCNCC2 [Example 215, 2-tert-Butyl-3-phenyl-2,4,5,6,7,8-hexahydro-1,2,6-triaza-azulene]

- Ki [1]: 0.03 µM
Structure (SMILES): CS(=O)(=O)Nc1ccc(Cn2nc(-c3ccccc3)c3c2CCNCC3)cc1 [Example 100, N-[4-(3-Phenyl-5,6,7,8-tetrahydro-4H-1,2,6-triaza-azulen-1-ylmethyl)-phenyl]-methanesulfonamide]

- Ki [1]: 0.085 µM
- Ki [2, 5]: 0.003 µM
- Ki [3]: 0.003 µM
Structure (SMILES): Clc1ccc(-c2c3c(nn2C2CCCCC2)CCNCC3)cc1 [Example 178, 3-(4-Chloro-phenyl)-2-cyclohexyl-2,4,5,6,7,8-hexahydro-1,2,6-triaza-azulene]

- Ki [1]: 0.017 µM
Structure (SMILES): C=CCCn1nc(-c2ccc(Cl)cc2)c2c1CCNCC2 [Example 111, 1-But-3-enyl-3-(4-chloro-phenyl)-1,4,5,6,7,8-hexahydro-1,2,6-triaza-azulene]
